Data on one molecule can be found in patent US20260226497A1, “TRANSGENIC MAIZE EVENT MON 87427” (Monsanto Technology LLC, priority 2009, published 2026).

This data set relates to event MON 87427 hybrids. The format is in vivo, maize. The following applies: two successive sprays at 2.25 lb a.e./acre each. The text has this: This illustrates that the F1 hybrid plants from event MON 87427 crosses are fully tolerant to glyphosate when used for weed control.

The structures appear in SMILES notation.

In the case of `O=C(O)CNCP(=O)(O)O` [glyphosate, N-phosphonomethylglycine], the “injury or male fertility compared with NK603 hybrid” value was “no difference was observed in injury or male fertility”.
